The text below walks through data of patent publication US12076409B2, “Polymer-drug conjugates for combination anticancer therapy” (priority 2015, dated 2024).

Assay [1] has as its system human breast cancer cell line BT-474. Briefly: MTT cell viability and drug combination studies in BT-474 cells. The assay is classed as cell-based. As to conditions: BT-474, 72 hours, read-out: D50 (concentration of drug required to inhibit 50% cell growth). The procedure:
BT-474 or bEnd.3 cells were seeded in a 96-well cell culture plate at a density of 10,000 cells per well in a total volume of 100 μL/well and allowed to adhere overnight. Media was then replaced with fresh media containing drug(s). Drugs were first dissolved in DMSO, and then further diluted in full cell culture medium so as not to expose cells to more than 0.5 vol % DMSO. BT-474 cells were incubated with drug solutions for 72 hours, while bEnd.3 cells were exposed to drug solutions for 48 hours. […] To assess cell viability, the media was replaced with 0.5 mg/mL MTT in media and allowed to incubate for 4 hours. […] Formazan dye intensity was determined by absorbance measured at 570 nm in a Tecan Infinite M200 Pro plate reader (Männedorf, Switzerland). The fraction of inhibited cell growth was calculated by subtracting live cells in experimental wells from untreated control cells and normalizing against control cells. D50 refers to the concentration of drug required to inhibit 50% cell growth. Experimental cytotoxicity data were fitted to the median-effect model developed by Chou and Talalay to obtain in vitro cytotoxicity curves for each drug.

The test system of assay [2] is BT-474 cells. In words: Annexin V/Sytox Green apoptosis assay (flow cytometry). Format: cell-based, human. Particulars: BT-474, 72 hours, single drug. The procedure: Apoptosis assessment was made based on Annexin V and Sytox Green counterstaining. Studies followed the Life Technologies Apoptosis Assay protocol, with few modifications tailored to BT-474 cells. Briefly, cells were seeded at a concentration of 100×10^4 cells per 25 cm^2 cell culture flask in a total volume of 10 mL media, and allowed to adhere overnight. Media was then decanted and replaced with fresh media containing drug(s). Drugs were first dissolved in DMSO and further diluted in media such that cells were not exposed to more than 0.2 vol % DMSO. Cells were incubated in the presence of drug(s) for 72 hours. After drug exposure, cells were harvested at a concentration of 1×10^6 cells/mL in Annexin V binding buffer, and 200 μL of each sample were incubated with 5 μL of Annexin V-647 and 1 μL of 1 μM Sytox Green. After 15 minutes of dye incubation, cells were diluted 5× in ice cold Annexin V Binding Buffer, and immediately analyzed via flow cytometry in a Becton Dickinson FACSAria cell sorter (Franklin Lakes, NJ, USA). To quantify Annexin V-647 and Sytox Green fluorescence, a 633 nm laser with 660 PMT and a 488 nm laser with 530 PMT, respectively, were utilized. […]
Scatter plots obtained from flow cytometry of AnnexinV/Sytox Green counterstained cells were analyzed. These plots were utilized to quantify early apoptotic and late apoptotic/necrotic populations in FIG. 2. […]

Assay [3] concerns BT-474 cells. Briefly: Internalization studies by confocal laser scanning microscopy. The assay is classed as cell-based, human. As to conditions: BT-474, 24 hrs. The procedure:
To assess the effect of HA-conjugation on the internalization of CPT or DOX in BT-474 cells, confocal laser scanning microscopy was utilized. Cells were seeded at a density of 80,000 cells per 300 μL media in an 8-well chambered borosilicate coverglass (Nunc Lab-Tek), and were allowed to adhere overnight. Cells were exposed to the same drug concentration, the free drug D50, of either the free drug solution or the HA-conjugate form for 24 hrs at 37° C. and 5% CO2. Post-drug incubation, cells were washed twice with warmed PBS (pH 7.4), followed by staining with nuclear dyes at 37° C., 5% CO2. In the case of DOX-exposed cells, Hoechst nuclear dye was utilized at a concentration of 25 μg/mL for 30 minutes. For CPT-exposed cells, to avoid overlap fluorescence between CPT and nuclear marker, DRAQ5 was used to stain nuclei at a concentration of 5 μM in media for 60 minutes. Cells were washed twice more in warm PBS and finally suspended in media immediately prior to imaging. All cells were imaged live with an Olympus Fluoview 1000 spectral confocal equipped with a 60× silicon oil objective and a 37° C. temperature-controlled imaging chamber. […] Z-stacks of 10 μm were captured and subsequently analyzed with ImageJ 1.47h software (NIH). Each z-stack was collapsed into an averaged image, and fluorescence intensity was reported as the raw integrated density divided by number of cells. […]

Assay [4] relates to small cell lung cancer. Particulars: patients with small cell lung cancer; cited from earlier work.

For `CC[C@@]1(O)C(=O)OCc2c1cc1n(c2=O)Cc2cc3ccccc3nc2-1` [CPT, Camptothecin], in assay [1], the IC50 came out at 100 µM. For the same compound, the “percentage of apoptotic cells” value in assay [2] is “low percentages of apoptotic cells”.

Turning to `COc1cccc2c1C(=O)c1c(O)c3c(c(O)c1C2=O)C[C@@](O)(C(=O)CO)C[C@@H]3O[C@H]1C[C@H](N)[C@H](O)[C@H](C)O1` [DOX, Doxorubicin], the intracellular distribution entry in assay [3] was “more diffuse and co-localized with cell nuclei”. In addition, in assay [4], the overall response rate is recorded as greater than 20%.
